Measured values reported in patent publication US20260022142A1, “MACROCYCLIC IMMUNOMODULATORS” (Bristol-Myers Squibb Company, priority 2022, published 2026).
Bridge positions count the residues as written; N and C are the ends. Square brackets hold non-standard residues; d marks the D form. Peptide text beside a SMILES is read from it. * marks the point of attachment. ξ: configuration not given here. Bip = N[C@@H](Cc1ccc(-c2ccccc2)cc1)C(=O)O; NH(CH2)14COOH = O=C(O)CCCCCCCCCCCCCCN*; Phe(3-Me) = Cc1cccc(C[C@H](N)C(=O)O)c1; NH(CH2)12COOH = O=C(O)CCCCCCCCCCCCN*; hArg = N=C(N)NCCCC[C@H](N)C(=O)O; Cha = N[C@@H](CC1CCCCC1)C(=O)O; Cit = NC(=O)NCCC[C@H](N)C(=O)O; Thr(3ξ) = CC(O)[C@H](N)C(=O)O; 12Ado = NCCCCCCCCCCCC(=O)O; Carboxymethyl = O=C(O)C*; Orn = NCCC[C@H](N)C(=O)O; Aun = NCCCCCCCCCCC(=O)O; Dab = NCC[C@H](N)C(=O)O; Dap = NC[C@H](N)C(=O)O; AEEA = NCCOCCOCC(=O)O

Molecular target: T1, PD-1/PD-L1 interaction (PE-labeled human PD-L1-Ig binding to Jurkat cell line over-expressing human PD-1) (Homo sapiens, UniProt Q15116)
T1 construct: expressed in transfected cells; host or cells: Jurkat
T1 sequence (Q15116 25-288): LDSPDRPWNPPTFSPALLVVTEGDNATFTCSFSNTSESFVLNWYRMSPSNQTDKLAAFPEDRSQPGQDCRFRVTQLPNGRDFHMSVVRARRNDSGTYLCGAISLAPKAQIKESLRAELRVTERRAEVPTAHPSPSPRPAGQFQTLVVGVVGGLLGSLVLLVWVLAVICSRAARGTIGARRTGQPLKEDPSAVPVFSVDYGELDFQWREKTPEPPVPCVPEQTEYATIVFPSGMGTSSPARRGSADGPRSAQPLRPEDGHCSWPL
Experiment: Jurkat-PD-1 Cell Binding High-Content Screening Assay (CBA)
Type: cell-based
Conditions: Jurkat cell line over-expressing human PD-1; PE-labeled PD-L1-Ig 20 nM final; read-out: Jurkat hPD1-PDL1 IC50
Procedure, shortened: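 Binding of fluorescent PD-L1-Ig (phycoerythrin on Ig tag, 20 nM final, 1 h) measured by high-content imaging of fixed, Hoechst-counterstained Jurkat-hPD-1 cells. Compound added 2 h at 37° C beforehand, in DMEM with 10% fetal calf serum.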

IC50 | SMILES
82.9 nM | Cc1cccc(C[C@@H]2NC(=O)[C@H](CC(=O)O)NC(=O)[C@H](Cc3ccc(OCC(=O)O)cc3)NC(=O)[C@H](CN)NC(=O)CSC[C@@H](C(=O)N[C@@H](CCCN)C(=O)NCCCCCCCCCCCCC(=O)O)NC(=O)[C@H](C(C)O)NC(=O)[C@H](C(C)C)NC(=O)[C@H](CC3CCCCC3)NC(=O)[C@H](CCN)NC(=O)[C@@H](CC(C)C)NC(=O)[C@H](CCCN)NC(=O)[C@H](CCCNC(N)=O)NC(=O)[C@H](Cc3ccc(-c4ccccc4)cc3)NC(=O)[C@H](C(C)C)NC2=O)c1 (stereo partly drawn) [Compound 3123] ({CH2CO}-[Dap]Y(Carboxymethyl)D[Phe(3-Me)]V[Bip][Cit][Orn][dL][Dab][Cha]V[Thr(3ξ)]C[Orn]-{NH(CH2)12COOH}; thioether N-14)
281 nM | Cc1cccc(C[C@@H]2NC(=O)[C@H](CC(=O)O)NC(=O)[C@H](Cc3ccc(OCC(=O)O)cc3)NC(=O)[C@H](CN)NC(=O)CSC[C@@H](C(=O)N[C@@H](CCCN)C(=O)NCCCCCCCCCCCCCCC(=O)O)NC(=O)[C@H](C(C)O)NC(=O)[C@H](C(C)C)NC(=O)[C@H](CC3CCCCC3)NC(=O)[C@H](CCN)NC(=O)[C@@H](CC(C)C)NC(=O)[C@H](CCCN)NC(=O)[C@H](CCCNC(N)=O)NC(=O)[C@H](Cc3ccc(-c4ccccc4)cc3)NC(=O)[C@H](C(C)C)NC2=O)c1 (stereo partly drawn) [Compound 3124] ({CH2CO}-[Dap]Y(Carboxymethyl)D[Phe(3-Me)]V[Bip][Cit][Orn][dL][Dab][Cha]V[Thr(3ξ)]C[Orn]-{NH(CH2)14COOH}; thioether N-14)
29.1 nM | Cc1cccc(C[C@@H]2NC(=O)[C@H](CC(=O)O)NC(=O)[C@H](Cc3ccc(OCC(=O)O)cc3)NC(=O)[C@H](CN)NC(=O)CSC[C@@H](C(=O)N[C@@H](CCN)C(=O)NCCCCCCCCCCCC(=O)O)NC(=O)[C@H](C(C)O)NC(=O)[C@H](C(C)C)NC(=O)[C@H](CC3CCCCC3)NC(=O)[C@H](CCN)NC(=O)[C@@H](CC(C)C)NC(=O)[C@H](CCCN)NC(=O)[C@H](CCCNC(N)=O)NC(=O)[C@H](Cc3ccc(-c4ccccc4)cc3)NC(=O)[C@H](C(C)C)NC2=O)c1 (stereo partly drawn) [Compound 3125] ({CH2CO}-[Dap]Y(Carboxymethyl)D[Phe(3-Me)]V[Bip][Cit][Orn][dL][Dab][Cha]V[Thr(3ξ)]C[Dab][12Ado]-OH; thioether N-14)
308 nM | Cc1cccc(C[C@@H]2NC(=O)[C@H](CC(=O)O)NC(=O)[C@H](Cc3ccc(OCC(=O)O)cc3)NC(=O)[C@H](CN)NC(=O)CSC[C@@H](C(=O)N[C@@H](CCN)C(=O)NCCCCCCCCCCCCCCC(=O)O)NC(=O)[C@H](C(C)O)NC(=O)[C@H](C(C)C)NC(=O)[C@H](CC3CCCCC3)NC(=O)[C@H](CCN)NC(=O)[C@@H](CC(C)C)NC(=O)[C@H](CCCN)NC(=O)[C@H](CCCNC(N)=O)NC(=O)[C@H](Cc3ccc(-c4ccccc4)cc3)NC(=O)[C@H](C(C)C)NC2=O)c1 (stereo partly drawn) [Compound 3127] ({CH2CO}-[Dap]Y(Carboxymethyl)D[Phe(3-Me)]V[Bip][Cit][Orn][dL][Dab][Cha]V[Thr(3ξ)]C[Dab]-{NH(CH2)14COOH}; thioether N-14)
15.5 nM | CC(C)C[C@H]1NC(=O)[C@H](CCCN)NC(=O)[C@H](C(C)C)NC(=O)[C@H](Cc2ccc(-c3ccccc3)cc2)NC(=O)[C@H](C(C)C)NC(=O)[C@H](Cc2c[nH]c3ccccc23)NC(=O)[C@H](CC(=O)O)NC(=O)[C@H](Cc2ccc(OCC(=O)O)cc2)NC(=O)[C@H](CN)NC(=O)CSC[C@@H](C(=O)NCCOCCOCC(=O)N[C@@H](CCCCN)C(=O)NCCCCCCCCCCC(=O)O)NC(=O)[C@H](C(C)O)NC(=O)[C@H](C(C)C)NC(=O)[C@H](CC2CCCCC2)NC(=O)[C@H](CC(N)=O)NC1=O (stereo partly drawn) [Compound 3128] ({CH2CO}-[Dap]Y(Carboxymethyl)DWV[Bip]V[Orn][dL]N[Cha]V[Thr(3ξ)]C[AEEA]K[Aun]-OH; thioether N-14)
53.4 nM | CC(C)C[C@H]1NC(=O)[C@H](CCCCN)NC(=O)[C@H](C(C)C)NC(=O)[C@H](Cc2ccc(-c3ccccc3)cc2)NC(=O)[C@H](C(C)C)NC(=O)[C@H](Cc2c[nH]c3ccccc23)NC(=O)[C@H](CC(=O)O)NC(=O)[C@H](Cc2ccc(OCC(=O)O)cc2)NC(=O)[C@H](CCCCNC(=N)N)NC(=O)CSC[C@@H](C(=O)NCCOCCOCC(=O)N[C@@H](CCCCN)C(=O)NCCCCCCCCCCC(=O)O)NC(=O)[C@H](CO)NC(=O)[C@H](C(C)C)NC(=O)[C@H](CC2CCCCC2)NC(=O)[C@H](CC(N)=O)NC1=O [Compound 3129] ({CH2CO}-[hArg]Y(Carboxymethyl)DWV[Bip]VK[dL]N[Cha]VSC[AEEA]K[Aun]-OH; thioether N-14)
16.5 nM | CC(C)C[C@H]1NC(=O)[C@H](CCCN)NC(=O)[C@H](C(C)C)NC(=O)[C@H](Cc2ccc(-c3ccccc3)cc2)NC(=O)[C@H](C(C)C)NC(=O)[C@H](Cc2c[nH]c3ccccc23)NC(=O)[C@H](CC(=O)O)NC(=O)[C@H](Cc2ccc(OCC(=O)O)cc2)NC(=O)[C@H](CCCCNC(=N)N)NC(=O)CSC[C@@H](C(=O)NCC(=O)NCCOCCOCC(=O)N[C@@H](CCCN)C(=O)NCCCCCCCCCCC(=O)O)NC(=O)[C@H](C(C)O)NC(=O)[C@H](C(C)C)NC(=O)[C@H](CC2CCCCC2)NC(=O)[C@H](CCN)NC1=O (stereo partly drawn) [Compound 3130] ({CH2CO}-[hArg]Y(Carboxymethyl)DWV[Bip]V[Orn][dL][Dab][Cha]V[Thr(3ξ)]CG[AEEA][Orn][Aun]-OH; thioether N-14)
7.8 nM | CC(C)C[C@H]1NC(=O)[C@H](CCCN)NC(=O)[C@H](CCCNC(N)=O)NC(=O)[C@H](Cc2ccc(-c3ccccc3)cc2)NC(=O)[C@H](C(C)C)NC(=O)[C@H](Cc2c[nH]c3ccccc23)NC(=O)[C@H](CC(=O)O)NC(=O)[C@H](Cc2ccc(OCC(=O)O)cc2)NC(=O)[C@H](CN)NC(=O)CSC[C@@H](C(=O)NCCOCCOCC(=O)N[C@@H](CCCCN)C(=O)NCCCCCCCCCCC(=O)O)NC(=O)[C@H](CCCNC(N)=O)NC(=O)[C@H](C(C)C)NC(=O)[C@H](CC2CCCCC2)NC(=O)[C@H](CCN)NC1=O [Compound 3146] ({CH2CO}-[Dap]Y(Carboxymethyl)DWV[Bip][Cit][Orn][dL][Dab][Cha]V[Cit]C[AEEA]K[Aun]-OH; thioether N-14)
29.7 nM | CC(C)C[C@H]1NC(=O)[C@H](CCCN)NC(=O)[C@H](C(C)C)NC(=O)[C@H](Cc2ccc(-c3ccccc3)cc2)NC(=O)[C@H](C(C)C)NC(=O)[C@H](Cc2c[nH]c3ccccc23)NC(=O)[C@H](CC(=O)O)NC(=O)[C@H](Cc2ccc(OCC(=O)O)cc2)NC(=O)[C@H](CN)NC(=O)CSC[C@@H](C(=O)NCCOCCOCC(=O)N[C@@H](CCCCN)C(=O)NCCCCCCCCCCC(=O)O)NC(=O)[C@H](C(C)O)NC(=O)[C@H](C(C)C)NC(=O)[C@H](CC2CCCCC2)NC(=O)[C@H](CC(=O)O)NC1=O (stereo partly drawn) [Compound 3147] ({CH2CO}-[Dap]Y(Carboxymethyl)DWV[Bip]V[Orn][dL]D[Cha]V[Thr(3ξ)]C[AEEA]K[Aun]-OH; thioether N-14)
56.7 nM | CC(C)C[C@H]1NC(=O)[C@H](CCCN)NC(=O)[C@H](C(C)C)NC(=O)[C@H](Cc2ccc(-c3ccccc3)cc2)NC(=O)[C@H](C(C)C)NC(=O)[C@H](Cc2c[nH]c3ccccc23)NC(=O)[C@H](CC(=O)O)NC(=O)[C@H](Cc2ccc(OCC(=O)O)cc2)NC(=O)[C@H](CCCNC(N)=O)NC(=O)CSC[C@@H](C(=O)N[C@@H](CCCCN)C(=O)NCCCCCCCCCCC(=O)O)NC(=O)[C@H](C(C)O)NC(=O)[C@H](C(C)C)NC(=O)[C@H](CC2CCCCC2)NC(=O)[C@H](Cc2cnc[nH]2)NC1=O (stereo partly drawn) [Compound 3148] ({CH2CO}-[Cit]Y(Carboxymethyl)DWV[Bip]V[Orn][dL]H[Cha]V[Thr(3ξ)]CK[Aun]-OH; thioether N-14)
46.5 nM | CC(C)C[C@H]1NC(=O)[C@H](CCCN)NC(=O)[C@H](C(C)C)NC(=O)[C@H](Cc2ccc(-c3ccccc3)cc2)NC(=O)[C@H](C(C)C)NC(=O)[C@H](Cc2c[nH]c3ccccc23)NC(=O)[C@H](CC(=O)O)NC(=O)[C@H](Cc2ccc(OCC(=O)O)cc2)NC(=O)[C@H](CN)NC(=O)CSC[C@@H](C(=O)N[C@@H](CCCN)C(=O)NCCCCCCCCCCC(=O)O)NC(=O)[C@H](C(C)O)NC(=O)[C@H](C(C)C)NC(=O)[C@H](CC2CCCCC2)NC(=O)[C@H](CC(N)=O)NC1=O (stereo partly drawn) [Compound 3149] ({CH2CO}-[Dap]Y(Carboxymethyl)DWV[Bip]V[Orn][dL]N[Cha]V[Thr(3ξ)]C[Orn][Aun]-OH; thioether N-14)
58.7 nM | CC(C)C[C@H]1NC(=O)[C@H](CCCN)NC(=O)[C@H](C(C)C)NC(=O)[C@H](Cc2ccc(-c3ccccc3)cc2)NC(=O)[C@H](C(C)C)NC(=O)[C@H](Cc2c[nH]c3ccccc23)NC(=O)[C@H](CC(=O)O)NC(=O)[C@H](Cc2ccc(OCC(=O)O)cc2)NC(=O)[C@H](CN)NC(=O)CSC[C@@H](C(=O)N[C@@H](CCCCN)C(=O)NCCCCCCCCCCCC(=O)O)NC(=O)[C@H](C(C)O)NC(=O)[C@H](C(C)C)NC(=O)[C@H](CC2CCCCC2)NC(=O)[C@H](CCCNC(=N)N)NC1=O (stereo partly drawn) [Compound 3150] ({CH2CO}-[Dap]Y(Carboxymethyl)DWV[Bip]V[Orn][dL]R[Cha]V[Thr(3ξ)]CK[12Ado]-OH; thioether N-14)
34.1 nM | CC(C)C[C@H]1NC(=O)[C@H](CCCN)NC(=O)[C@H](C(C)C)NC(=O)[C@H](Cc2ccc(-c3ccccc3)cc2)NC(=O)[C@H](C(C)C)NC(=O)[C@H](Cc2c[nH]c3ccccc23)NC(=O)[C@H](CC(=O)O)NC(=O)[C@H](Cc2ccc(OCC(=O)O)cc2)NC(=O)[C@H](CCCCNC(=N)N)NC(=O)CSC[C@@H](C(=O)N[C@@H](CCN)C(=O)NCCCCCCCCCCC(=O)O)NC(=O)[C@H](C(C)O)NC(=O)[C@H](C(C)C)NC(=O)[C@H](CC2CCCCC2)NC(=O)[C@H](Cc2cnc[nH]2)NC1=O (stereo partly drawn) [Compound 3151] ({CH2CO}-[hArg]Y(Carboxymethyl)DWV[Bip]V[Orn][dL]H[Cha]V[Thr(3ξ)]C[Dab][Aun]-OH; thioether N-14)
